Source: patent publication US20060106099A1, “Novel inhibitors of ubiquitin isopeptidases” (priority 2002, published 2006)
Where two headings read alike, the source gives them in different places.

Key:
[1] = tested on: RKO cells
[2] = tested on: ubiquitin isopeptidases; assay: In vivo isopeptidase activity after treatment of RKO cells, Ub-PEST; type: cell-based, human; details: 6 h
Method: Isopeptidase Assay. It was hypothesized that the punaglandins would inhibit ubiquitin-isopeptidase activity of the proteasome pathway as does the prostaglandin, Δ^12-PGJ2 (1), but with greater potency because of the chlorinated C-10. To validate this theory, cellular isopeptidase enzymatic activity was measured in vitro after treatment with individual punaglandins, PNG 2 (6), PNG 3 (7), and Z-PNG 4 (9) and in vivo after individual treatment with PNG 4 (8) and PNG 6 (10). This activity was determined utilizing the simple isopeptidase substrate, ubiquitin-PEST (Ub-PEST), a full/length ubiquitin (Ub) molecule fused with an 18-amino acid C-terminal peptide extension that most isopeptidases use as a substrate. The polypeptide extension contains regions rich in Pro (P), Glu (E), Ser (S), and Thr (T) residues called PEST motifs that are responsible for rapid degradation of these and other unstable proteins. Ub isopeptidases specifically cleave this peptide extension, yielding free, full-length Ub. Both the fused Ub-PEST (10.5 kDa) and the cleaved, free Ub (8.5 kDa) can be observed via immunochemical detection.
In vivo Isopeptidase Activity. To investigate whether punaglandins can inhibit isopeptidase activity in vivo, isopeptidase activity was analyzed after punaglandin treatment of RKO cells. PNG 4 (8) and PNG 6 (10) were selected for in vivo investigation because they differ only in enone functionality, where (8) is a dienone and (10) an enone. RKO cells were incubated with 1 μM, 4 μM, or 7 μM of PNG 4 (8) and PNG 6 (10). […] As a positive control, cells were treated with a known isopeptidase inhibitor, shikoccin (SK). After 6 h drug treatment, cells were lysed and protein concentration adjusted to 0.3 mg/mL per sample. Each sample was subsequently incubated with 50 μg/mL of Ub-PEST. The reaction was terminated after 20 min and the respective amounts of Ub-PEST (10 kDa) and free Ub product (8.5 kDa) were determined by SDS-PAGE fractionation.

[3] = tested on: cell lines with Wild type p53; details: cited from earlier work
[4] = tested on: HCT 116 +/+ cells
Method: Cell viability was measured with MTT reagent as described in materials and methods.
Cell viability was detected by the MTT assay. Briefly, 1×10^5 cells were incubated per well of a sterile, 96-well assay plate with 0-60 μM of test compounds for 48 hours. MTT reagent was added to each well, final concentration of 0.5 mg/mL, and incubated for an additional 3 hours. The media was aspirated and remaining MTT reagent from each well and added 100 μL of HCl:isopropanol (1:24). The absorbance of each sample was measured at 405 nm.

[5] = in vivo; cited from earlier work
[6] = tested on: HCT 116 +/+ cells; details: Mullally et al., University of Utah, 2003; read-out: EC50 in competent HCT 116 cells; cited from earlier work
[7] = tested on: ubiquitin isopeptidases; details: cells treated for 12 h; cited from earlier work
[8] = tested on: ubiquitin isopeptidases; assay: Reversibility of isopeptidase inhibition in cell lysates, z-LRGG-AMC, dialysis; type: biochemical; details: 100 μM
Method: FIG. 5 Reversibility of isopeptidase inhibition by Δ12-PGJ2. Cell lysates (0.5 mg/mL) were treated with DMSO vehicle or 100 μM .12-PGJ2 for 1 hour,25° C. The treated lysates were divided into two aliquots. One aliquot was immediately analyzed for isopeptidase activity by incubating with z-LRGG-AMC as previously described (Pre-Dialysis). The second aliquot was dialyzed by washing with 3 volumes of assay buffer on a centricon YM-30 column, followed by analysis for isopeptidase activity by incubating with z-LRGG-AMC (Post-Dialysis).
Δ-12-PGJ2 irreversibility was determined. Cell lysates were incubated with vehicle or 100 μM test compound and isopeptidase activity was measured fluorimetrically. 500 μl portion of each sample were dialyzed through a Centricon filter with a molecular weight cut-off of […]. After washing with 3 volumes of assay buffer, isopeptidase activity was measured in the […].

[9] = tested on: HCT 116 −/− cells
[10] = tested on: ubiquitin isopeptidases; assay: In vitro isopeptidase activity in HCT 116 lysates, Ub-PEST; type: biochemical, human; details: HCT 116 lysates, 45 min
[11] = cited from earlier work

| SMILES | EC50 [1] [µM] | effect on Ub-PEST degradation, control substances [2] | p53 dependence in NCI 60 cell line cancer screening data ([3]; analysis according to O'Connor et al., 1997) | LC50 ([3]; mean of 18 cell lines with wild type p53) [µM] | EC50 [4] [µM] | cross-resistance with cisplatin and adriamycin [5] | EC50 [6] [µM] | concentration showing inhibition of Ub-PEST degradation, previous in vivo studies [7] [µM] | isopeptidase inhibition in treated cell lysates, pre-dialysis ([8]; 1 hour, 25° C.) | reversibility of isopeptidase inhibition, post-dialysis ([8]; dialysis with 3 volumes of assay buffer) | EC50 [9] [µM] | concentration at which inhibition of Ub-PEST degradation is initially observed [10] [µM] | concentration of complete (total) inhibition of Ub-PEST degradation [10] [µM] | t1/2 of metabolism to an inactive compound in serum [11] [min] |
| --- | --- | --- | --- | --- | --- | --- | --- | --- | --- | --- | --- | --- | --- | --- |
| C=C1C(=O)C2=CC1CCC(=O)C1(C)CCC(OC(C)=O)C(C)(C)C1CC2O (centres unmarked) [NSC-302979, shikoccin] | 1.8 ± 0.1 | expected inhibition of Ub-PEST degradation | act independently of p53 | 54 |  |  |  |  |  |  |  |  |  |  |
| CCCCC[C@H](O)C/C=C1/C(=O)C=C[C@@H]1C/C=C\CCCC(=O)O [Δ12-PGJ2, Δ12-prostaglandin J2] |  |  |  |  | 3.6 ± 0.3 | little cross-resistance with cisplatin and adriamycin | 3.6 | 60 | inhibited isopeptidase activity in treated cell lysates | could not be reversed by dialysis | 4.1 ± 0.1 | 60 | 200 | < 5 |
